Assay results as given in US20260217652A1, “PHENYL-SUBSTITUTED HETEROARYL COMPOUND AND PHARMACEUTICAL COMPOSITION COMPRISING SAME, PREPARATION METHOD THEREFOR AND USE THEREOF” (SHANGHAI MEIYUE BIOTECH DEVELOPMENT CO., LTD., priority 2023, published 2026).
Where two headings read alike, the source gives them in different places.

Columns and labels:
p38 MAPK/MK2 = target: T1, p38 MAPK/MK2 (Homo sapiens, UniProt Q16539); assay: In vitro activity assay of p38 MAPK/MK2 (Z-LYTE kinase assay kit); format: biochemical; details: active p38α, inactive MK2, Ser/Thr 4; 1-hour reaction at 20° C.
T1 construct: purchased Carna (p38α); Abcam (MK2) 04-152; 79910
In short: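 FRET-based Z-LYTE assay; compound tested from […] top concentration, 5-fold serial dilution, 8 points, duplicate wells, 1% DMSO. Kinase reaction 1 h at 20° C, then development reagent 1 h at room temperature; fluorescence read at Ex 400/Em 445 and 520 nm. IC50 from concentration-effect curve fit.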

[1] = In vitro liver microsome stability, mouse; format: in vitro ADME; details: liver microsomes, 0.5 mg/mL microsomes, 1 μM compound, NADPH, 37° C., read-out: Mouse liver microsomes Half-life T1/2
Procedure: (§1) The reference compound used in this experiment was Ketanserin, and the final concentration of microsomes in the experimental system was 0.5 mg/mL. The PBS buffer was a 50 mM K2HPO4 buffer. The concentration of the test compound was 1 μM. The microsomes were added to PBS, and the control/test compounds were respectively added to the corresponding reaction systems, mixed thoroughly, and pre-incubated in a 37° C. water bath for 5 minutes. The reaction was initiated by adding 20 mM NADPH solution under 37° C. water bath conditions (for the No NADPH samples, an equal volume of PBS solution was used as a substitute for the 20 mM NADPH solution). At the reaction time points of 0 min, 10 min, 30 mun, 60 min, and 90 min, 30 μL of reaction samples were taken from each reaction system (for the No NADPH samples, sampling was performed at 0 min and 90 min), and the reaction was immediately terminated by adding 300 μL of the internal standard acetonitrile solution. After centrifugation at 4000 rpm, the supernatant was taken and mixed thoroughly with an equal volume of pure water. The samples at each time point were analyzed by LC-MS/MS (AB Triple Quard 5500) to determine the compound content, and the T1/2 was calculated.

[2] = In vitro liver microsome stability, rat; format: in vitro ADME; details: liver microsomes, 0.5 mg/mL microsomes, 1 μM compound, NADPH, 37° C., read-out: Rat liver microsomes Half-life T1/2
Procedure: as §1

[3] = Pharmacokinetic evaluation in mice; format: in vivo; details: mouse, plasma; for AUC(0-t): read-out: Area under curve AUC0-24 h; for half-life: read-out: Half-life T1/2 (converted)
Procedure: The compound was weighed and dissolved in a mixed solvent of DMAC: Solutol: PBS (1:1:8. After intravenous/gastric administration to mice, whole blood ([…]) was collected at 0.083, 0.25, 0.5, 1, 2, 4, 7, and 24 hours. The samples were anticoagulated with EDTA-K2, immediately centrifuged at 4000 rpm for 5 minutes at 4° C., and the supernatant was frozen in a −80° C. refrigerator. Plasma sample processing: The samples were precipitated with an internal standard-containing CH3CN precipitant, followed by centrifugation at 12700 rpm for 10 min. The supernatant was collected and analyzed by LC-MS/MS (AB Triple Quard 5500) to obtain the plasma drug concentration. The parameters were calculated using a non-compartmental model in Winnolin version 8.1.

[4] = intravenous injection group 1 mg/kg
[5] = po, intragastric administration group 5 mg/kg

T1 sequence (Q16539 whole entry): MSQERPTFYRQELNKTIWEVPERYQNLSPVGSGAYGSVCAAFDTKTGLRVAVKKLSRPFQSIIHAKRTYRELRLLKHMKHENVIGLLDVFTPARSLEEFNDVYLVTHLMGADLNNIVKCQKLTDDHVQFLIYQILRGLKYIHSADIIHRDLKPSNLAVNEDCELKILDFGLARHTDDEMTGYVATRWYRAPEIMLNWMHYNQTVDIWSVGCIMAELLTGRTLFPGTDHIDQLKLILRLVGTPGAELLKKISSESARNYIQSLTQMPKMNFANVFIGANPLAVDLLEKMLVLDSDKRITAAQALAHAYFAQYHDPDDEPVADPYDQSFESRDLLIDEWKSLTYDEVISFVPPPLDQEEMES
T1 sequence (P49137 whole entry partner): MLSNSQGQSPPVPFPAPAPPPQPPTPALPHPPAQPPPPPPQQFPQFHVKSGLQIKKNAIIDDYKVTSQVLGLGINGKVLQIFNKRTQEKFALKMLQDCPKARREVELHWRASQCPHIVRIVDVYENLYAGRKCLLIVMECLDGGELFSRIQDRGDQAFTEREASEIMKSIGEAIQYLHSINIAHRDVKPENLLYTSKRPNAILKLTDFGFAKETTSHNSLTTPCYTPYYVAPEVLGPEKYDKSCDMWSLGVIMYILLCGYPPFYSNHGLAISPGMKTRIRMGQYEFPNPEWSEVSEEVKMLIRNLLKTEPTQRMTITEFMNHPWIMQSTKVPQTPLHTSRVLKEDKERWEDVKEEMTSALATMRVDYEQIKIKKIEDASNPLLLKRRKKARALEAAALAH

Compound `CNC(=O)c1cccc(-c2ncc(C)c(-n3c(C)cc(OCc4ncc(F)cc4F)c(Cl)c3=O)c2F)c1` [Compound 31-P1] has an IC50 (p38 MAPK/MK2) of 2.79 nM, a half-life at 1 μM [1] of 1.79 h and a half-life at 1 μM [2] of 2.76 h. The AUC(0-t) [3, 4] was 1360 ng·h/mL, the clearance ([3]; intravenous injection group 1 mg/kg, read-out: Clearance CL (converted)) was 12.3 mL/min/kg and the half-life [3, 4] was 0.57 h. The C0 ([3]; intravenous injection group 1 mg/kg, read-out: Initial concentration C0) was 2150 ng/mL, the Vd ([3]; intravenous injection group 1 mg/kg, read-out: Volume of distribution Vd) was 0.47 L/kg and the AUC(0-t) [3, 5] was 2070 ng·h/mL. For the same compound, the bioavailability ([3]; po, intragastric administration group 5 mg/kg, read-out: Bioavailability F %) was 30.5%, the half-life [3, 5] was 3.24 h and the Cmax ([3]; po, intragastric administration group 5 mg/kg, read-out: Maximum concentration Cmax) was 979 ng/mL.
